From patent US20080171710A1, “The Redox/Fyn/c-Cbl Pathway” (priority 2007, published 2008)

What was measured:
Fyn [1] = format: cell-based, rat; conditions: EtOH exposure 30 min
PDGFRα [2] = format: cell-based, rat; conditions: for effect on MeHg-induced reductions in levels of PDGFRα: together with MeHg; for effect on Pb- and paraquat-induced reductions in levels of PDGFRα: together with Pb (1 μM) or paraquat (5 μM)
O-2A/OPCs [3] = assay: MTT+ cells in EtOH-exposed O-2A/OPCs; format: cell-based, rat; conditions: cells infected with empty virus; 0.5% EtOH, 72 hrs
Experimental: Twenty-four hr after transfection, medium was changed into DMEM/F12(SATO-) supplemented with 10 ng/ml PDGF-AA. Virus supernatant was collected forty-eight hr post-transfection, filtered through 0.45 um filter to remove non-adherent cells and cellular debris, frozen in small aliquots on dry ice, and stored at −80° C. Twenty-four hr prior to infection with either DN-c-Cbl virus or backbone virus, O-2A cells were seeded. The following day, the culture media was aspirated and replaced with virus supernatant diluted 1:1 in the O-2A growth media. Media was then changed into O-2. A growth media after eight hr or overnight. Twenty-four hr after infection, the cells were collected by trypsinization and reseeded in the selective media (growth media+200 ng/ml puromycin). By the next day, all non-infected cells were floating and presumably dead or dying. The infected cells were allowed to proliferate for two days, and then collected and re-seeded for these experiments.

EGFR = format: cell-based, rat
Text: (§1) Anti-phosphorylated Erk monoclonal, anti-Erk monoclonal, anti-TrkC polyclonal anti-Fyn polyclonal, anti-EGFR polyclonal, anti-c-Met polyclonal, anti-phospho-tyrosine monoclonal, and anti-PDGFRα polyclonal antibodies were obtained from Santa Cruz Biotechnology (Santa Cruz, Calif., United States). Anti-c-Cbl monoclonal antibody was obtained from BD PharMingen (San Diego, Calif., United States). Anti-phosphorylated Akt monoclonal and anti-Akt polyclonal antibodies were obtained from Cell Signaling Technology (Beverly, Mass., United States). Anti-phosphorylated PDGPRα polyclonal antibody was obtained from Biosource (Carlsbad, Calif., United States). The cell culture samples were collected and lysed in RAPI buffer, whereas dissected tissue samples were sonicated in RAPI buffer. Samples were resolved on SDS-PAGE gels and transferred to PVDF membranes (PerkinElmer Life Science. Wellesley, Mass., United States), After being blocked in 5% skim milk in PBS containing 0.1% Tween 20, membranes were incubated with a primary antibody, followed by incubation with an HRP-conjugated secondary antibody (Santa Cruz Biotechnology). Membranes were visualized using Western Blotting Luminol Reagent (Santa Cruz Biotechnology). All analyses of signaling pathway components were conducted in the presence of ligand for the receptor pathway under analysis (either PDGF-AA for PDGFRα, NT-3 or TrkC, HGF for c-Met, or EGF for EGFR).

c-Met = format: cell-based, rat
Text: as §1

TrkC = format: cell-based, rat
Text: as §1

Akt = format: cell-based, rat
Experimental: (§2) Cells were deprived of PDGF-AA for 5 h before re-exposure to PDGF-AA (10 ng/ml) for 1 h for Western blot or 6 h for luciferase assays of pathway activation. Transient transfection was performed using Fugene6 (Roche, Basel, Switzerland ) transfection solution according to the manufacturer's protocol. For the luciferase assay, cells seeded in 12-well plates were transfected with a reporter plasmid SRE-Luc(firefly) or NF-κB-Luc(firefly) (BD-Clontech, Palo Alto, Calif., United States) and an internal control plasmid pRLSV40-LUC. Analyses of luciferase activity were performed according to the protocol of the Dual Luciferase Assay System (Promega, Madison, Wis., United States), which uses an internal control of Renilla luciferase for quantification, and relative light units were measured using a luminometer.
as §1

Erk1/2 = format: cell-based, rat
Experimental: as §2, §1

c-Cbl [4] = format: cell-based, rat
Experimental: (§3) For the co-immunoprecipitation assay, anti-c-Cbl monoclonal antibody (BD PharMingen) or anti-PDGFRα polyclonal antibody (Santa Cruz Biotechnology) was added to the pre-cleared cell lysates (250 μg of total protein), and the mixtures were gently rocked for 2 h at 4° C. A total of 30 μl of protein A/G agarose was then added to the mixture followed by rotating at 4° C. overnight. The protein A/G agarose was then spun down and washed thoroughly three times. The precipitates were resolved on an 8% SDS-PAGE gel and then were subjected to Western blot analysis using an anti-p-Tyr (for c-Cbl phosphorylation assay) or ubiquitin (for PDGFR ubiquitylation assay) antibody (Santa Cruz Biotechnology).

PDGFRα [5] = assay: PDGFR ubiquitylation (immunoprecipitation assay); format: cell-based, rat; conditions: co-exposure with MeHg
Experimental: as §3

PDGFRα [6] = assay: PDGFRα phosphorylation (Western blot, anti-PDGFRα(pY742)); format: cell-based, rat; conditions: co-exposure with MeHg
Text: The cells were then collected and lysed for Western blotting. […] Cells were lysed for Western blot analysis using anti-PDGFRα(pY742) antibody. The membranes were de-probed and then re-probed with antibody against total PDGFRα and anti-β-tubulin antibody. […]
as §1

MDA-MB-231 cell = MDA-MB-231 cell division by BrdU incorporation; format: cell-based; conditions: NAC 1 mM or PP1 200 nM with 20 μM tamoxifen, 48 hours
Experimental: It has been reported that c-Cbl induced down-regulation of EGFR is disabled in cancer cells (Hirsch DS, Shen. Y, Wu WJ, (2006) Cancer Res. Apr 1;66(7):3523-30). Thus, growth and motility inhibition of breast cancer cells by EGFR degradation is correlated with inaetivation of Cdc42. […] Cells were cultured in phenol red-free growth media and exposed to TMX (0, 1 μM, 10 μM, 20 μM and 50 μM) for 48 hours, with or without 1 mM NAC. In FIG. 22C. MDA-MB-231 cell division was analyzed by BrdU incorporation analysis. […] Percentage of Brdu+ cells from DAPI+ cells was determined in each sample.

Fyn [7] = target: T1, Fyn (Rattus norvegicus, UniProt Q62844); format: cell-based
T1 construct: 250 μg of total cell lysates were immunoprecipitated with anti-Fyn antibody; endogenous in cells; host or cells: primary rat O-2A/OPCs
Experimental: Fyn kinase activity was quantified using the Universal Tyrosine Kinase Assay Kit (Takara, Madison, Wis., United States). O-2A/OPCs exposed to different treatments were solubilized with an equal volume of the extraction buffer provided with the kit for 15 min, and the resulting lysates were centrifuged at 13,000×g for 15 min at 4° C.; 250 μg of total cell lysates were immunoprecipitated with anti-Fyn antibody (Santa Cruz Biotechnology). Following immunoprecipitation, Fyn immune complexes were washed four times with extraction buffer, and then Fyn kinase activities of each sample were assayed using the kit according to the manufacturer's instructions.

O-2A/OPCs [8] = assay: Clonal analysis of division and differentiation; format: cell-based, rat; conditions: co-exposure with MeHg; 1 mM NAC or PP1
Experimental: O-2A/OPCs purified from P7 rat optic nerve were plated in. poly-L-lysine-coated 25-cm^2 flasks at clonal density with DMBM medium in the presence of 10-ng/ml PDGF as previously described. After 24-h recovery, cells were treated with different toxicants, each for 3 d, until visual inspection and immunostaining was performed. NAC was added 1 h before exposure to other toxicants for NAC pretreatment, and NAC co-exists throughout the culture period. The numbers of O-2A/OPCs and oligodendrocytes in each clone were determined by counting under fluorescent microscope. […] Experiments were performed in triplicate in at least two independent experiments.

cancer cells = assay: Cancer cell viability (MTT assays), FIG. 22; format: cell-based; conditions: TMX 1-50 μM, 48 hours
O-2A/OPCs [9] = assay: In vitro BrdU incorporation assay; format: cell-based, rat
Experimental: Cell proliferation was assessed by bromodeoxyuridine (BrdU) incorporation and by using the mouse anti-BrdU mAb IgGl (1:100; Sigma) to label dividing cells. Stained cells on cover slips were rinsed two times in 1×PBS, counterstained with 4′6-diamidino-2-phenylindole (DAPI; Molecular Probes, Eugene, Oreg., United States) and mounted on glass slides with Fluoromount (Molecular Probes). Staining against surface proteins was performed on cultures of living cells or on cells fixed with 2% paraformaldehyde. Staining with intracellular antibodies was performed by permeabilizing cells with ice-cold methanol for 4 min or by using 0.5% Triton for 15 mm on 2% parafomaldhyde-fixed cells. Antibody binding was detected with appropriate fluorescent dye-conjugated secondary antibodies at 10 μg/ml (Southern Biotech, Birmingham, Ala., United States) or Alexa Fluor-coupled antibodies at a concentration of 1 μg/ml (Molecular Probes), applied for 20 min. Anti-BrdU monoclonal antibody was obtained from Sigma.

Rho kinase = Rho kinase (Rattus norvegicus, UniProt Q63644); conditions: concentration of Y27632 used in O-2A/OPCs
Experimental: Rho kinase activity was quantified using the CycLex Rho-Kinase Assay kit (MBL international, Woburn, Mass., United States) as described. Cells were lysed and about 500 μg of total cell Jysates were immunoprecipitated with anti-ROCK1 antibody (Sigma), and the precipitates were re-suspended with kinase reaction buffer provided in the kit. Rho kinase activities of each sample were assayed using the kit according to the manufacturer's instructions.

Fyn [10] = assay: Fyn protein level after RNAi (Western blot); format: cell-based, rat; conditions: expression of RNAi construct
Text: (§4) Anti-phosphorylated Erk monoclonal, anti-Erk monoclonal, anti-TrkC polyclonal anti-Fyn polyclonal, anti-EGFR polyclonal, anti-c-Met polyclonal, anti-phospho-tyrosine monoclonal, and anti-PDGFRα polyclonal antibodies were obtained from Santa Cruz Biotechnology (Santa Cruz, Calif., United States). Anti-c-Cbl monoclonal antibody was obtained from BD PharMingen (San Diego, Calif., United States). Anti-phosphorylated Akt monoclonal and anti-Akt polyclonal antibodies were obtained from Cell Signaling Technology (Beverly, Mass., United States). Anti-phosphorylated PDGPRα polyclonal antibody was obtained from Biosource (Carlsbad, Calif., United States). The cell culture samples were collected and lysed in RAPI buffer, whereas dissected tissue samples were sonicated in RAPI buffer. […]
(§5) siRNA target sites were selected by scanning the cDNA sequence for AA dinucleotides via siRNA target finder (Ambion, Austin, Tex., United States). Those 19-nucleotide segments that start with G immediately downstream of AA were recorded and then analyzed by BLAST search to eliminate any sequences with significant similarity to other genes. […]

c-Cbl [11] = assay: c-Cbl protein level after RNAi (Western blot); format: cell-based, rat; conditions: expression of RNAi construct
Text: as §4, §5

[12] = NAC 1 mM, PP1 100 nM or ICI 182,780 200 nM with TMX

T1 sequence (Q62844 whole entry): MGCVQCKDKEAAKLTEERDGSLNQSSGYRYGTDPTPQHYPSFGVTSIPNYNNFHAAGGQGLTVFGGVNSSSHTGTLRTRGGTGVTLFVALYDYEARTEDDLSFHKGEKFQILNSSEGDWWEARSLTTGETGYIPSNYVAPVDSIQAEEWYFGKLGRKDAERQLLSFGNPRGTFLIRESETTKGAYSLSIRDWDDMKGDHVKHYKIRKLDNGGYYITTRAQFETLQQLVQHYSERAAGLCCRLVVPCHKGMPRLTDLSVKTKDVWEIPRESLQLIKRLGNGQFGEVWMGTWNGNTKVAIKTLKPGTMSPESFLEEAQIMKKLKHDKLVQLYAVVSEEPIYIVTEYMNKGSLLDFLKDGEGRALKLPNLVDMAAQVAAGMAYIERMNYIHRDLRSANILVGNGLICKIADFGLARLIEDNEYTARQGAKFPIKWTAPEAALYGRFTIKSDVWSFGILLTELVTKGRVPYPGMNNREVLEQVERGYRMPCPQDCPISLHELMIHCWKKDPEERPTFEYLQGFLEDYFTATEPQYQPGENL
Rho kinase, sequence (Q63644 whole entry): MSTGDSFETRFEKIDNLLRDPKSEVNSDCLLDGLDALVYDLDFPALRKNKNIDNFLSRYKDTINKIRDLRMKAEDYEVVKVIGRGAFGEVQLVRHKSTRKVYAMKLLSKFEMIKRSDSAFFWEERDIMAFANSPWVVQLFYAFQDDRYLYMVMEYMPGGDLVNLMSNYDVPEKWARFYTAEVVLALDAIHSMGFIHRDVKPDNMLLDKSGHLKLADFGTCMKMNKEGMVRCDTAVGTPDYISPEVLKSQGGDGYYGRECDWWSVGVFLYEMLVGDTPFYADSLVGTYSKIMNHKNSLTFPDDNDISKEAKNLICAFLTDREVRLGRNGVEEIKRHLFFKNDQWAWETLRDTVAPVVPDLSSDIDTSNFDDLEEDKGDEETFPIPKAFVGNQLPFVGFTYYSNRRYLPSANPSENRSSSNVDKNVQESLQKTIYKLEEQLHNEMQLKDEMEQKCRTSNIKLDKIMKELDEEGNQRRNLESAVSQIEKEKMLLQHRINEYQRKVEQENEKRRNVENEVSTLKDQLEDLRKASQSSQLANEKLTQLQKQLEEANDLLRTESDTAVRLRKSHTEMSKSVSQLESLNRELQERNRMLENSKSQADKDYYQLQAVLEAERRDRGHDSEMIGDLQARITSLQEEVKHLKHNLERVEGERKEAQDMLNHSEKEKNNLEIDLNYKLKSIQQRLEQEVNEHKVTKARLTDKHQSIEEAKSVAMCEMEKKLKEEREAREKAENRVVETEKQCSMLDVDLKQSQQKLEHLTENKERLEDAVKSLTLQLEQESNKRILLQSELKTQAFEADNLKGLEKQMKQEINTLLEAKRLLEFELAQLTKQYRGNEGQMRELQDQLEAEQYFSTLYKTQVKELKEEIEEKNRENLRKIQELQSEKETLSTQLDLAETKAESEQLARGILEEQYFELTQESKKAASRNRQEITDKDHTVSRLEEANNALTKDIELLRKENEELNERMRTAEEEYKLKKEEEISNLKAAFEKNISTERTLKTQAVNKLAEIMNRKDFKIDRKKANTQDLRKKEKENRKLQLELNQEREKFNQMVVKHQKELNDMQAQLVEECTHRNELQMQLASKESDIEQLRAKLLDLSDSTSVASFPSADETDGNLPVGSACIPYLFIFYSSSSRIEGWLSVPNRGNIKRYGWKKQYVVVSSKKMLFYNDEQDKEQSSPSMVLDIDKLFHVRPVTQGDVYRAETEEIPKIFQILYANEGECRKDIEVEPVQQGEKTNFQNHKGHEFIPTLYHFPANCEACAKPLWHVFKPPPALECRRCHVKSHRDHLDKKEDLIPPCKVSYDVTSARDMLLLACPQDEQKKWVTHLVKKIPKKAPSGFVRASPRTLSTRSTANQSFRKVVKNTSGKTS

Molecule: CCO [EtOH, ethanol]
- Fyn phosphorylation (Fyn [1]): caused Fyn phosphorylation
- levels of PDGFRα (PDGFRα [2]): decreased levels
- decrease in the proportion of cells that were MTT+ (O-2A/OPCs [3]): ~25%
- levels of EGFR (EGFR): decreased levels
- levels of c-Met (c-Met): decreased levels
- levels of TrkC (TrkC): unaltered
- PDGF-induced phosphorylation of Akt (Akt): suppression
- PDGF-induced phosphorylation of Erk1/2 (Erk1/2): suppression
- c-Cbl phosphorylation (c-Cbl [4]): caused c-Cbl phosphorylation

Molecule: Cc1ccc(-c2nn(C(C)(C)C)c3ncnc(N)c23)cc1 [PP1]
- levels of ubiquitylated PDGFRα in MeHg-treated cells (PDGFRα [5]): marked reduction
- effect on MeHg-induced suppression of PDGFRα phosphorylation (PDGFRα [6]): protected
- effect on TMX-induced reductions in levels of PDGFRα (PDGFRα [2]; [12]): blocked
- effect on Aβ-induced reduction in PDGFRα levels (PDGFRα [2]; co-exposure with Aβ): blocked
- effect on MeHg-induced reductions in levels of PDGFRα (PDGFRα [2]): blocked
- effect on Pb- and paraquat-induced reductions in levels of PDGFRα (PDGFRα [2]): prevented
- rescue from tamoxifen effect on cell division (MDA-MB-231 cell): did not result in any rescue effect
- effect on TMX-induced activation of Fyn (Fyn [7]; [12]): blocked
- effect on MeHg-induced Fyn activation (Fyn [7]; added 1 h before MeHg): blocked
- effect on Pb- and paraquat-induced Fyn activation (Fyn [7]; added 1 h before Pb or paraquat): prevented
- effect on MeHg-induced suppression of cell division at the clonal level (O-2A/OPCs [8]): blocked
- effect on Aβ(1-42) suppression of PDGF-mediated Erk1/2 phosphorylation (Erk1/2; co-exposure with Aβ(1-42)): blocked
- effect on MeHg-associated suppression of Erk1/2 phosphorylation (Erk1/2; co-treatment with MeHg): blocked
- effect on TMX effects on cancer cells (cancer cells): not blocked
- effect on TMX effect on cell proliferation (O-2A/OPCs [9]; with TMX, 2 days): blocked
- effect on TMX-induced activation of c-Cbl (c-Cbl [4]; [12]): blocked
- effect on MeHg-induced c-Cbl phosphorylation (c-Cbl [4]; added 1 h before MeHg): blocked
- effect on Aβ-induced increase in phosphorylated c-Cbl (c-Cbl [4]; co-exposure with Aβ): blocked

Molecule: C[C@@H](N)[C@H]1CC[C@H](C(=O)Nc2ccncc2)CC1 [Y27632]
- effect on MeHg-associated suppression of BrdU incorporation / cell division (O-2A/OPCs [9]; together with MeHg): did not alter
- Rho kinase activity (Rho kinase): successfully inhibited

B1: Fyn-RNAi: Fyn-specific siRNA construct, SEQ ID NO: 1 and 2 (nucleic acid)
chain 1: GTTTGCTCGACTTCTTAAATTCAAGAGATTTAAGAAGTCGAGCAAACTTTTTT
chain 2: AATTAAAAAAGTTTGCTCGACTTCTTAAATCTCTTGAATTTAAGAAGTCGAGCAAACGGCC
modifications: expressed or natural sequence
- effect on MeHg-induced reductions in levels of PDGFRα (PDGFRα [2]): protected
- effect on Pb- and paraquat-induced reductions in levels of PDGFRα (PDGFRα [2]): prevented
- levels of Fyn protein (Fyn [10]): caused a reduction
- levels of c-Cbl protein (c-Cbl [11]): had no effects
